# Reference: article PMC11971462, “Generation and validation of a novel multitarget small molecule in glioblastoma” (Cell Death & Disease, 2025)
# Tested on: GNS166 cells
structure (smiles),measurement,value
C#CCN(Cc1cc2cc(OCCCN3CCCCC3)ccc2n1S(=O)(=O)c1ccccc1)C(=O)CCCCCCC(=O)NO [DDI],A2M log2FoldChange,2.665
same,ABCD2 log2FoldChange,5.236
same,ABCG1 log2FoldChange,3.412
same,ABLIM2 log2FoldChange,4.711
same,ABLIM3 log2FoldChange,3.639
same,ACSL6 log2FoldChange,2.978
same,ACSM3 log2FoldChange,2.457
same,ACTBL2 log2FoldChange,4.551
same,ADAMTS2 log2FoldChange,6.235
same,ADAMTS7 log2FoldChange,2.1929
same,ADAMTS8 log2FoldChange,3.596
same,ADCYAP1R1 log2FoldChange,3.806
same,ADGRG4 log2FoldChange,6.334
same,ADRB1 log2FoldChange,2.369
same,AKR1C3 log2FoldChange,4.683
same,ALDH1A1 log2FoldChange,3.2419
same,ALPL log2FoldChange,3.15
same,AMER2 log2FoldChange,3.985
same,ANGPTL4 log2FoldChange,2.513
same,ANGPTL6 log2FoldChange,3.595
same,ANKRD1 log2FoldChange,3.607
same,ANKRD24 log2FoldChange,3.419
same,ANO5 log2FoldChange,4.46
same,ANOS1 log2FoldChange,4.667
same,APC2 log2FoldChange,2.08
same,ARHGAP4 log2FoldChange,2.074
same,ARMH1 log2FoldChange,2.688
same,ARPP21 log2FoldChange,2.016
same,ASPHD1 log2FoldChange,2.1055
same,ASXL3 log2FoldChange,3.768
same,ATCAY log2FoldChange,4.501
same,ATP6V1C2 log2FoldChange,2.012
same,AZIN2 log2FoldChange,3.645
same,B3GALT1 log2FoldChange,2.502
same,BAIAP3 log2FoldChange,2.116
same,BEST1 log2FoldChange,2.175
same,BMF log2FoldChange,2.488
same,BMP7 log2FoldChange,2.795
same,BRINP1 log2FoldChange,6.679
same,C2orf81 log2FoldChange,2.053
same,C5AR1 log2FoldChange,2.131
same,C14orf132 log2FoldChange,5.7
same,CACNA1H log2FoldChange,4.953
same,CACNA2D2 log2FoldChange,5.172
same,CADM3 log2FoldChange,6.675
same,CALHM5 log2FoldChange,2.928
same,CALY log2FoldChange,5.625
same,CAMK2N2 log2FoldChange,2.028
same,CARMIL2 log2FoldChange,3.403
same,CARMIL3 log2FoldChange,3.869
same,CCDC39 log2FoldChange,4.487
same,CCDC92B log2FoldChange,5.8
same,CCDC110 log2FoldChange,2.494
same,CCDC148 log2FoldChange,2.41
same,CCDC160 log2FoldChange,2.467
same,CCDC181 log2FoldChange,2.436
same,CCDC183 log2FoldChange,2.45
same,CCM2L log2FoldChange,4.732
same,CD22 log2FoldChange,2.4858
same,CDYL2 log2FoldChange,2.827
same,CECR2 log2FoldChange,4.106
same,CELF5 log2FoldChange,4.62
same,CFAP43 log2FoldChange,2.577
same,CFAP54 log2FoldChange,2.381
same,CFAP57 log2FoldChange,3.908
same,CFAP298-TCP10L log2FoldChange,2.613
same,CHGB log2FoldChange,2.484
same,CHRD log2FoldChange,2.364
same,CHST9 log2FoldChange,3.903
same,CKMT1A log2FoldChange,5.211
same,CLEC19A log2FoldChange,2.635
same,CLIC5 log2FoldChange,2.4345
same,COL2A1 log2FoldChange,3.044
same,COL6A3 log2FoldChange,4.472
same,CPED1 log2FoldChange,2.118
same,CPLX1 log2FoldChange,3.672
same,CPM log2FoldChange,2.471
same,CRABP1 log2FoldChange,4.4
same,CRTAC1 log2FoldChange,4.102
same,CRYAB log2FoldChange,3.702
same,CSMD2 log2FoldChange,3.997
same,CSRNP3 log2FoldChange,2.27
same,CTSH log2FoldChange,2.081
same,CYP1A1 log2FoldChange,3.053
same,CYP2S1 log2FoldChange,2.662
same,CYP4F22 log2FoldChange,6.411
same,DAPL1 log2FoldChange,2.233
same,DCAF8L1 log2FoldChange,5.4838
same,DDIT4L log2FoldChange,2.364
same,DENND6B log2FoldChange,2.257
same,DGKI log2FoldChange,3.175
same,DHH log2FoldChange,3.784
same,DLL3 log2FoldChange,3.7947
same,DLX3 log2FoldChange,2.236
same,DMBX1 log2FoldChange,2.746
same,DNAAF1 log2FoldChange,4.023
same,DNAH7 log2FoldChange,3.23
same,DNAI1 log2FoldChange,4.453
same,DNAI3 log2FoldChange,2.636
same,DNAI7 log2FoldChange,4.138
same,DOCK5 log2FoldChange,2.9913
same,DTX1 log2FoldChange,4.306
same,DUSP9 log2FoldChange,2.25
same,EAF2 log2FoldChange,2.082
same,EDA log2FoldChange,4.8176
same,EFCAB12 log2FoldChange,2.979
same,EGFL7 log2FoldChange,2.196
same,EGLN3 log2FoldChange,2.576
same,EID3 log2FoldChange,2.42
same,ELAPOR2 log2FoldChange,4.1571
same,ELOVL3 log2FoldChange,3.984
same,EPHB6 log2FoldChange,4.725
same,ERBB3 log2FoldChange,2.384
same,ERVV-1 log2FoldChange,6.315
same,FAIM2 log2FoldChange,2.169
same,FAM43B log2FoldChange,2.485
same,FAM71F1 log2FoldChange,2.207
same,FAM78A log2FoldChange,2.232
same,FAM107A log2FoldChange,2.013
same,FAM131C log2FoldChange,2.228
same,FANK1 log2FoldChange,2.642
same,FAT2 log2FoldChange,2.483
same,FBLN2 log2FoldChange,5.485
same,FBLN5 log2FoldChange,4.419
